Test results published in patent US12655125B2 (SIRONAX LTD., priority 2020, dated 2026).

System: HT-29 cells
Experiment: HT29 Cells 0FBS Assay In Vitro (TNF-α/SMAC mimetic/zVAD-FMK induced necroptosis, CellTiter-Glo cell viability)
Format: cell-based
Details: Homo sapiens; HT-29 cells, FBS free medium, TNF-α (10 ng/ml), SMAC mimetic (6 uM), zVAD-FMK (10 μM), 20 hours; geometric mean EC50; read-out: Cell activity (EC50) of Compounds 117-281
How it was run: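 HT-29 cells (5,000/well, seeded overnight) in serum-free McCoy's 5A were stimulated with TNF-α 10 ng/ml, SMAC mimetic 6 μM and zVAD-FMK 10 μM to induce necroptosis. Compound added as 10-point 3-fold series for 20 h at 37° C. CellTiter-Glo luminescence gives viability; EC50 is geometric mean of duplicate dose-responses.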

First: CC(O)c1cnn(C)c1-c1cc(OC2CN(C(=O)N3N=CC[C@H]3c3cc(F)cc(F)c3)C2)c(F)cn1 (stereo partly drawn) [compound 179, ((S)-5-(3,5-difluorophenyl)-4,5-dihydro-1H-pyrazol-1-yl)(3-((5-fluoro-2-(4-(1-hydroxyethyl)-1-methyl-1H-pyrazol-5-yl)pyridin-4-yl)oxy)azetidin-1-yl)methanone]
Second: Cn1nc(CO)nc1-c1cc(OC2CN(C(=O)N3N=CC[C@H]3c3cc(F)cc(F)c3)C2)c(F)cn1 [compound 202, (S)-(5-(3,5-difluorophenyl)-4,5-dihydro-1H-pyrazol-1-yl)(3-((5-fluoro-2-(3-(hydroxymethyl)-1-methyl-1H-1,2,4-triazol-5-yl)pyridin-4-yl)oxy)azetidin-1-yl)methanone]
The EC50 of the first is higher: 100 to 1000 nM for the first, 0.1 to 100 nM for the second.

`Cc1nc(CO)sc1-c1cc(OC2CN(C(=O)N3N=CC[C@H]3c3cc(F)cc(F)c3)C2)c(F)cn1` [compound 180, (S)-(5-(3,5-difluorophenyl)-4,5-dihydro-1H-pyrazol-1-yl)(3-((5-fluoro-2-(2-(hydroxymethyl)-4-methylthiazol-5-yl)pyridin-4-yl)oxy)azetidin-1-yl)methanone] and `Cc1nc(C(N)=O)sc1-c1cc(OC2CN(C(=O)N3N=CC[C@H]3c3cc(F)cc(F)c3)C2)c(F)cn1` [compound 189, (S)-5-(4-((1-(5-(3,5-difluorophenyl)-4,5-dihydro-1H-pyrazole-1-carbonyl)azetidin-3-yl)oxy)-5-fluoropyridin-2-yl)-4-methylthiazole-2-carboxamide] fall in the same range of EC50: 0.1 to 100 nM for the first, 0.1 to 100 nM for the second.

`Cc1nn(C2CCNCC2)c(C)c1-c1cc(OC2CN(C(=O)N3N=CC[C@H]3c3cc(F)cc(F)c3)C2)c(F)cn1` [compound 181] and `Cc1nn(S(C)(=O)=O)c(C)c1-c1cc(OC2CN(C(=O)N3N=CC[C@H]3c3cc(F)cc(F)c3)C2)c(F)cn1` [compound 187, (S)-(5-(3,5-difluorophenyl)-4,5-dihydro-1H-pyrazol-1-yl)(3-((2-(3,5-dimethyl-1-(methylsulfonyl)-1H-pyrazol-4-yl)-5-fluoropyridin-4-yl)oxy)azetidin-1-yl)methanone] fall in the same range of EC50: 0.1 to 100 nM for the first, 0.1 to 100 nM for the second.

`Cc1cnc(C)n1-c1cc(OC2CN(C(=O)N3N=CC[C@H]3c3cc(F)cc(F)c3)C2)c(F)cn1` [compound 182, (S)-(5-(3,5-difluorophenyl)-4,5-dihydro-1H-pyrazol-1-yl)(3-((2-(2,5-dimethyl-1H-imidazol-1-yl)-5-fluoropyridin-4-yl)oxy)azetidin-1-yl)methanone] and `Cc1nc(C#N)c(C)n1-c1cc(OC2CN(C(=O)N3N=CC[C@H]3c3cc(F)cc(F)c3)C2)c(F)cn1` [compound 199, (S)-1-(4-((1-(5-(3,5-difluorophenyl)-4,5-dihydro-1H-pyrazole-1-carbonyl)azetidin-3-yl)oxy)-5-fluoropyridin-2-yl)-2,5-dimethyl-1H-imidazole-4-carbonitrile] fall in the same range of EC50: 0.1 to 100 nM for the first, 0.1 to 100 nM for the second.

`Cc1nn(-c2cc(OC3CN(C(=O)N4N=CC[C@H]4c4cc(F)cc(F)c4)C3)c(F)cn2)c(C)c1C(=O)N1CCCCC1` [compound 183, (S)-(5-(3,5-difluorophenyl)-4,5-dihydro-1H-pyrazol-1-yl)(3-((2-(3,5-dimethyl-4-(piperidine-1-carbonyl)-1H-pyrazol-1-yl)-5-fluoropyridin-4-yl)oxy)azetidin-1-yl)methanone] and `Cc1nn(-c2cc(OC3CN(C(=O)N4N=CC[C@H]4c4cc(F)cc(F)c4)C3)c(F)cn2)c(C)c1C(=O)N1CCCC1` [compound 194, (S)-(5-(3,5-difluorophenyl)-4,5-dihydro-1H-pyrazol-1-yl)(3-((2-(3,5-dimethyl-4-(pyrrolidine-1-carbonyl)-1H-pyrazol-1-yl)-5-fluoropyridin-4-yl)oxy)azetidin-1-yl)methanone] fall in the same range of EC50: 0.1 to 100 nM for the first, 0.1 to 100 nM for the second.

`Cc1nn(-c2cc(OC3CN(C(=O)N4N=CC[C@H]4c4cc(F)cc(F)c4)C3)c(F)cn2)c(C)c1C(=O)N1CCOCC1` [compound 184, (S)-(5-(3,5-difluorophenyl)-4,5-dihydro-1H-pyrazol-1-yl)(3-((2-(3,5-dimethyl-4-(morpholine-4-carbonyl)-1H-pyrazol-1-yl)-5-fluoropyridin-4-yl)oxy)azetidin-1-yl)methanone] and `Cc1nn(-c2cc(OC3CN(C(=O)N4N=CC[C@H]4c4cc(F)cc(F)c4)C3)c(F)cn2)c(C)c1C(=O)N1CCC1` [compound 195, (S)-azetidin-1-yl(1-(4-((1-(5-(3,5-difluorophenyl)-4,5-dihydro-1H-pyrazole-1-carbonyl)azetidin-3-yl)oxy)-5-fluoropyridin-2-yl)-3,5-dimethyl-1H-pyrazol-4-yl)methanone] fall in the same range of EC50: 0.1 to 100 nM for the first, 0.1 to 100 nM for the second.

`Cc1cnn(C)c1-c1ccc(F)c(OC2CN(C(=O)N3N=CC[C@H]3c3cc(F)cc(F)c3)C2)n1` [compound 185, (S)-(5-(3,5-difluorophenyl)-4,5-dihydro-1H-pyrazol-1-yl)(3-((6-(1,4-dimethyl-1H-pyrazol-5-yl)-3-fluoropyridin-2-yl)oxy)azetidin-1-yl)methanone] and `Cc1cnn(C)c1-c1ccc(F)c(OC2CN(C(=O)N3N=CC[C@H]3c3cc(F)cc(F)c3)C2)c1` [compound 197, (S)-(5-(3,5-difluorophenyl)-4,5-dihydro-1H-pyrazol-1-yl)(3-(5-(1,4-dimethyl-1H-pyrazol-5-yl)-2-fluorophenoxy)azetidin-1-yl)methanone] fall in the same range of EC50: 0.1 to 100 nM for the first, 0.1 to 100 nM for the second.

`Cc1c(C#N)nn(C)c1-c1ccc(F)c(OC2CN(C(=O)N3N=CC[C@H]3c3cc(F)cc(F)c3)C2)n1` [compound 186, (S)-5-(6-((1-(5-(3,5-difluorophenyl)-4,5-dihydro-1H-pyrazole-1-carbonyl)azetidin-3-yl)oxy)-5-fluoropyridin-2-yl)-1,4-dimethyl-1H-pyrazole-3-carbonitrile] and `Cc1c(C(N)=O)nn(C)c1-c1ccc(F)c(OC2CN(C(=O)N3N=CC[C@H]3c3cc(F)cc(F)c3)C2)n1` [compound 196, (S)-5-(6-((1-(5-(3,5-difluorophenyl)-4,5-dihydro-1H-pyrazole-1-carbonyl)azetidin-3-yl)oxy)-5-fluoropyridin-2-yl)-1,4-dimethyl-1H-pyrazole-3-carboxamide] fall in the same range of EC50: 0.1 to 100 nM for the first, 0.1 to 100 nM for the second.

`Cc1nc(C#N)sc1-c1cc(OC2CN(C(=O)N3N=CC[C@H]3c3cc(F)cc(F)c3)C2)c(F)cn1` [compound 188, (S)-5-(4-((1-(5-(3,5-difluorophenyl)-4,5-dihydro-1H-pyrazole-1-carbonyl)azetidin-3-yl)oxy)-5-fluoropyridin-2-yl)-4-methylthiazole-2-carbonitrile] and `Cn1nc(CF)nc1-c1cc(OC2CN(C(=O)N3N=CC[C@H]3c3cc(F)cc(F)c3)C2)c(F)cn1` [compound 201, (S)-(5-(3,5-difluorophenyl)-4,5-dihydro-1H-pyrazol-1-yl)(3-((5-fluoro-2-(3-(fluoromethyl)-1-methyl-1H-1,2,4-triazol-5-yl)pyridin-4-yl)oxy)azetidin-1-yl)methanone] fall in the same range of EC50: 0.1 to 100 nM for the first, 0.1 to 100 nM for the second.

`Cc1nn(-c2cc(OC3CN(C(=O)N4N=CC[C@H]4c4cc(F)cc(F)c4)C3)c(F)cn2)c(C)c1S(C)(=O)=O` [compound 190, (S)-(5-(3,5-difluorophenyl)-4,5-dihydro-1H-pyrazol-1-yl)(3-((2-(3,5-dimethyl-4-(methylsulfonyl)-1H-pyrazol-1-yl)-5-fluoropyridin-4-yl)oxy)azetidin-1-yl)methanone] and `CSc1c(C)nn(-c2cc(OC3CN(C(=O)N4N=CC[C@H]4c4cc(F)cc(F)c4)C3)c(F)cn2)c1C` [compound 203, (S)-(5-(3,5-difluorophenyl)-4,5-dihydro-1H-pyrazol-1-yl)(3-((2-(3,5-dimethyl-4-(methylthio)-1H-pyrazol-1-yl)-5-fluoropyridin-4-yl)oxy)azetidin-1-yl)methanone] fall in the same range of EC50: 0.1 to 100 nM for the first, 0.1 to 100 nM for the second.

`Cc1[nH]c(C(N)=O)c(C)c1-c1cc(OC2CN(C(=O)N3N=CC[C@H]3c3cc(F)cc(F)c3)C2)c(F)cn1` [compound 191, (S)-4-(4-((1-(5-(3,5-difluorophenyl)-4,5-dihydro-1H-pyrazole-1-carbonyl)azetidin-3-yl)oxy)-5-fluoropyridin-2-yl)-3,5-dimethyl-1H-pyrrole-2-carboxamide] and `Cc1nc(C(N)=O)c(C)n1-c1cc(OC2CN(C(=O)N3N=CC[C@H]3c3cc(F)cc(F)c3)C2)c(F)cn1` [compound 200, (S)-1-(4-((1-(5-(3,5-difluorophenyl)-4,5-dihydro-1H-pyrazole-1-carbonyl)azetidin-3-yl)oxy)-5-fluoropyridin-2-yl)-2,5-dimethyl-1H-imidazole-4-carboxamide] fall in the same range of EC50: 0.1 to 100 nM for the first, 0.1 to 100 nM for the second.

`Cc1nn(-c2cc(OC3CN(C(=O)N4N=CC[C@H]4c4cc(F)cc(F)c4)C3)c(F)cn2)c(C)c1C(=O)N(C)C` [compound 192, (S)-1-(4-((1-(5-(3,5-difluorophenyl)-4,5-dihydro-1H-pyrazole-1-carbonyl)azetidin-3-yl)oxy)-5-fluoropyridin-2-yl)-N,N,3,5-tetramethyl-1H-pyrazole-4-carboxamide] and `CNC(=O)c1c(C)nn(-c2cc(OC3CN(C(=O)N4N=CC[C@H]4c4cc(F)cc(F)c4)C3)c(F)cn2)c1C` [compound 193, (S)-1-(4-((1-(5-(3,5-difluorophenyl)-4,5-dihydro-1H-pyrazole-1-carbonyl)azetidin-3-yl)oxy)-5-fluoropyridin-2-yl)-N,3,5-trimethyl-1H-pyrazole-4-carboxamide] fall in the same range of EC50: 0.1 to 100 nM for the first, 0.1 to 100 nM for the second.

`Cc1n[nH]c(C)c1-c1ccc(F)c(OC2CN(C(=O)N3N=CC[C@H]3c3cc(F)cc(F)c3)C2)c1` [compound 198, (S)-(5-(3,5-difluorophenyl)-4,5-dihydro-1H-pyrazol-1-yl)(3-(5-(3,5-dimethyl-1H-pyrazol-4-yl)-2-fluorophenoxy)azetidin-1-yl)methanone] and `Cc1nn(-c2cc(OC3CN(C(=O)N4N=CC[C@H]4c4cc(F)cc(F)c4)C3)c(F)cn2)c(C)c1[S+](C)[O-]` (stereo partly drawn) [compound 204, ((S)-5-(3,5-difluorophenyl)-4,5-dihydro-1H-pyrazol-1-yl)(3-((2-(3,5-dimethyl-4-(methylsulfinyl)-1H-pyrazol-1-yl)-5-fluoropyridin-4-yl)oxy)azetidin-1-yl)methanone] fall in the same range of EC50: 0.1 to 100 nM for the first, 0.1 to 100 nM for the second.
